Test results as given in patent US20110045101A1, “FUNGICIDAL SUBSTITUTED AZOLES” (E.I. Du Pont De Nemours and Company, priority 2009, published 2011).
Marks after values point to notes of the source that are not given here.

Columns and labels:
Assay type in all cases: in vivo
Settings in all cases: 100 = 100% disease control
[1] = test system: Botrytis cinerea; assay: Test C: tomato Botrytis on tomato seedlings, sprayed the day before inoculation, visual disease rating
Method in brief: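 Tomato seedlings sprayed to run-off with compound suspended in acetone/water with 250 ppm Trem 014 surfactant, at 200 ppm (≈500 g/ha) or 40 ppm where marked, one day before Botrytis cinerea inoculation. Disease rated visually.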

[2] = test system: Septoria nodorum; assay: Test F: wheat glume blotch on wheat seedlings, sprayed the day before inoculation, visual disease rating
Method in brief: (§1)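 Compounds were dissolved in acetone (3% of final volume), then suspended in 50/50 acetone/water with 250 ppm Trem 014 surfactant and sprayed to run-off on test plants. A 200 ppm suspension equals 500 g/ha. Ratings are at 200 ppm unless flagged as 40 ppm.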

[3] = test system: Erysiphe graminis f. sp. tritici; assay: Test J: wheat powdery mildew on wheat seedlings, sprayed the day before inoculation, visual disease rating
Method in brief: as §1

[4] = test system: Puccinia recondita f. sp. tritici; assay: Test I: wheat leaf rust on wheat seedlings, sprayed the day before inoculation, visual disease rating
Method in brief: as §1

[5] = test system: Alternaria solani; assay: Test D: tomato early blight, sprayed the day before inoculation, visual disease rating
Method in brief: as §1

[6] = test system: Puccinia recondita f. sp. tritici; assay: Test H: wheat leaf rust, test suspension sprayed after inoculation of wheat seedlings, visual disease rating
Method in brief: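 Wheat seedlings inoculated with P. recondita spores, held 24 h saturated at 20 °C, then 2 days in growth chamber at 20 °C; compound suspension (acetone/water with Trem 014) sprayed to run-off afterwards. Rated visually; 200 ppm (≈500 g/ha) unless marked *, which denotes 40 ppm.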

[7] = test system: Septoria tritici; assay: Test G: wheat leaf blotch on wheat seedlings, sprayed the day before inoculation, visual disease rating
Method in brief: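 Wheat seedlings were sprayed to run-off with test suspension (acetone/water plus surfactant), generally 200 ppm (≈500 g/ha), or 40 ppm where marked. Septoria tritici spores were inoculated the next day; plants were held 48 h at 24°C in saturated atmosphere, then 19 days at 20°C before visual disease rating.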

[8] = 200 ppm, 0 = no control relative to controls

Row | SMILES | Test C disease control rating [1, 8] [%] | Test F disease control rating [2, 8] [%] | Test J disease control rating [3, 8] [%] | Test I disease control rating [4, 8] [%] | Test D disease control rating [5, 8] [%] | Test H disease control rating [6, 8] [%] | Test G disease control rating [7, 8] [%] | further results
1 | COc1ccc(F)c(-c2c(Cl)nc(C)n2-c2ccc(Cl)cc2)c1Cl [compound 519] | 100 | 100 | 100 | 100 | 100 | 0 | 97 | –
2 | COC(=O)c1ccc(-n2c(Br)nc(Cl)c2-c2c(F)cccc2F)cc1 [compound 690] | 78 | 0 | 81 | 74 | 0 | 0 | 98 | –
3 | CC(=O)Nc1ccc(-n2c(Cl)nc(Cl)c2-c2c(F)cccc2F)cc1Cl [compound 636] | – | – | – | – | – | – | – | Test C disease control rating ([1]; 40 ppm (marked *)): 90* %; Test F disease control rating ([2]; 40 ppm (marked *)): 0* %; Test J disease control rating ([3]; 40 ppm (marked *)): 0* %; Test I disease control rating ([4]; 40 ppm (marked *)): 52* %; Test D disease control rating ([5]; 40 ppm (marked *)): 24* %; Test H disease control rating ([6]; 40 ppm (marked *)): 0* %; Test G disease control rating ([7]; 40 ppm (marked *)): 95* %
4 | COc1cc(F)c(-n2c(Cl)nc(C)c2-c2ccc(C)cc2)c(F)c1 [compound 564] | – | – | – | – | – | – | – | Test C disease control rating ([1]; 40 ppm (marked *)): 99* %; Test F disease control rating ([2]; 40 ppm (marked *)): 64* %; Test J disease control rating ([3]; 40 ppm (marked *)): 100* %; Test I disease control rating ([4]; 40 ppm (marked *)): 100* %; Test D disease control rating ([5]; 40 ppm (marked *)): 100* %; Test H disease control rating ([6]; 40 ppm (marked *)): 66* %; Test G disease control rating ([7]; 40 ppm (marked *)): 99* %
5 | CCOc1ccc(F)c(-c2c(Cl)ncn2-c2cccc(F)c2)c1F [compound 661] | 99 | 87 | 100 | 100 | 99 | 0 | 99 | –
6 | COc1cc(F)c(-c2c(Cl)nc(Br)n2Cc2ccc(Cl)nc2)c(F)c1 [compound 670] | 100 | 100 | 94 | 98 | 100 | 0 | 98 | –
7 | COc1cc(F)c(-c2c(Cl)nc(Cl)n2-c2ccc(OC(F)(F)F)cc2)c(F)c1 [compound 568] | 99 | 98 | 100 | 100 | 100 | 72 | 94 | –
8 | COc1cc(F)c(-c2c(-c3ccc(I)cc3)c(OC)nn2C)c(F)c1 [compound 431] | 9 | 0 | 0 | 0 | 9 | 9 | 98 | –
9 | COc1cc(F)c(-c2c(Cl)nc(Cl)n2-c2cccnc2OC)c(F)c1 [compound 676] | 100 | 99 | 98 | 100 | 99 | 99 | 99 | –
10 | Cc1nc(Br)c(Cc2ccc(F)cc2F)n1-c1ccc(Cl)cc1 [compound 404] | 100 | 0 | 98 | 97 | 0 | 0 | 99 | –
11 | COc1cc(F)c(-c2c(Cl)nc(Cl)n2-c2ccc(OC)nc2)c(F)c1 [compound 516] | 97 | 100 | 100 | 100 | 100 | 100 | 100 | –
12 | Cc1nc(Cl)n(-c2ccc(F)cc2Cl)c1-c1ccc(Cl)cc1 [compound 503] | 99 | 99 | 100 | 100 | 99 | 0 | 96 | –
13 | Cc1nc(Cl)c(-c2c(F)ccc(F)c2F)n1Cc1ccc(Cl)cc1 [compound 293] | – | – | – | – | – | – | – | Test C disease control rating ([1]; 200 ppm, 0 = no control): 99%; Test F disease control rating ([2]; 200 ppm, 0 = no control): 0%; Test J disease control rating ([3]; 200 ppm, 0 = no control): 100%; Test I disease control rating ([4]; 200 ppm, 0 = no control): 99%; Test D disease control rating ([5]; 200 ppm, 0 = no control): 91%; Test H disease control rating ([6]; 200 ppm, 0 = no control): 6%; Test G disease control rating ([7]; 200 ppm, 0 = no control): 95%
14 | COc1cc(OC)cc(-n2cnc(C)c2-c2c(F)cc(OC)cc2F)c1 [Compound 632, 5-(2,6-difluoro-4-methoxyphenyl)-1-(3,5-dimethoxyphenyl)-4-methyl-1H-imidazole] | – | – | – | – | – | – | – | pest or weed control at 200 ppm ([1]; Botrytis cinerea, 120 h, 200 ppm, 0 = no control relative to controls): 99%; pest or weed control at 200 ppm ([2]; Parastagonospora nodorum, 264 h, 200 ppm, 0 = no control relative to controls): 0%; pest or weed control at 200 ppm ([3]; Blumeria graminis, 168 h, 200 ppm, 0 = no control relative to controls): 97%; pest or weed control at 200 ppm ([4]; Puccinia recondita, 168 h, 200 ppm, 0 = no control relative to controls): 100%; pest or weed control at 200 ppm ([5]; Alternaria solani, 168 h, 200 ppm, 0 = no control relative to controls): 100%; pest or weed control at 200 ppm ([6]; Puccinia recondita, 96 h, 200 ppm, 0 = no control relative to controls): 99%; pest or weed control at 200 ppm ([7]; Zymoseptoria tritici, 504 h, 200 ppm, 0 = no control relative to controls): 98%
15 | Cc1ncc(Cc2c(F)cc(F)cc2F)n1-c1ccc(Cl)cc1 [compound 530] | 0 | 0 | 71 | 88 | 0 | 0 | 58 | –
16 | COc1cc(OC)c(Br)c(-n2c(C)nc(Br)c2Cc2ccc(F)cc2F)c1Br [compound 477] | 9 | 0 | 0 | 75 | 0 | 0 | 0 | –
17 | COc1cc(F)c(-c2c(Cl)ncn2-c2cccc(OC(F)F)c2)c(F)c1 [compound 556] | 100 | 98 | 97 | 100 | 99 | 87 | 95 | –
18 | COc1ccc(F)c(-c2c(Cl)nc(C)n2-c2ccc(Cl)c(C)c2)c1F [compound 425] | 100 | 100 | 100 | 96 | 100 | 0 | 100 | –
19 | Cc1ncc(-c2ccc(Cl)cc2)n1-c1c(F)cc([N+](=O)[O-])cc1F [compound 700] | – | – | – | – | – | – | – | Test C disease control rating ([1]; 40 ppm (marked *)): 93* %; Test F disease control rating ([2]; 40 ppm (marked *)): 0* %; Test J disease control rating ([3]; 40 ppm (marked *)): 0* %; Test I disease control rating ([4]; 40 ppm (marked *)): 0* %; Test D disease control rating ([5]; 40 ppm (marked *)): 0* %; Test H disease control rating ([6]; 40 ppm (marked *)): 0* %; Test G disease control rating ([7]; 40 ppm (marked *)): 53* %
20 | Fc1cc(-n2c(Br)nc(Br)c2-c2c(F)ccc(F)c2Cl)ccc1Cl [compound 459] | – | – | – | – | – | – | – | Test C disease control rating ([1]; 40 ppm (marked *)): 99* %; Test F disease control rating ([2]; 40 ppm (marked *)): 0* %; Test J disease control rating ([3]; 40 ppm (marked *)): 98* %; Test I disease control rating ([4]; 40 ppm (marked *)): 98* %; Test D disease control rating ([5]; 40 ppm (marked *)): 63* %; Test H disease control rating ([6]; 40 ppm (marked *)): 9* %; Test G disease control rating ([7]; 40 ppm (marked *)): 95* %
